Consider 3 compounds from patent US20140315869A1, “THERAPEUTIC USES OF ECTOINE” (BITOP AG, priority 2011, published 2014).

One assay concerns human neutrophils. Kind of assay: Apoptosis rate of isolated human neutrophil granulocytes (sub-G1 cells, propidium iodide, flow cytometry). In kind it is cell-based. To be noted: for prevention of the reduction of the apoptosis rate caused by CNP with or without budenoside / background apoptosis rate: Experiment 7, 1 mM test substance, 16 h; for prevention of the reduction of the apoptosis rate caused by CNP with or without budenoside: young volunteers; for background apoptosis rate: neutrophils from young volunteers. The procedure:
The effect of ectoine on the apoptosis was investigated by way of human neutrophils. Neutrophils from young, healthy donors (3 male and 2 female) were isolated and treated with the amounts of ectoine (mM) indicated. Treatment was carried out with ectoine alone (open columns) and with 33 μg/ml of CNP (black columns). Ectoine was not administered in the control group (C).
The apoptotic cells were quantified in the following manner: The neutrophils were suspended in 300 μl of hypotonic solution containing propidium iodide (PI). The fluorescence of PI was determined by means of flow cytometry (FACScan cytometer, BD Biosciences). The results are shown as percentage of hypodiploidal DNA (sub-G1), corresponding to fragmented DNA which is characteristic of apoptotic cells.
The effect of ectoine on the apoptosis was investigated by way of human neutrophils. Neutrophils of young, healthy donors (3 male and 2 female) were isolated and pretreated for 2 hours with PBS (dark columns) and with 1 mM of ectoine (light columns). Subsequently, treatment took place with 33 μg/ml of carbon nanoparticles (ufCB: ultrafine carbon black), 300 nM LTB4, 20 ng/ml GM CSF or 1 μM of dexamethasone, respectively no treatment with proinflammatory factors. (†: significant difference with respect to control group; *: significant difference with respect to neutrophils treated with proinflammatory factors and PBS only; quantification of the apoptotic cells analogous to Experiment 2).
The neutrophil granulocytes were pretreated for 2 hours with 1 mM of ectoine resp. PBS following which treatment took place for 16 hours with 33 μg/ml CNP, 300 nM LTB4, 20 ng/ml GMCSF or PBS. […] (dark columns: pretreatment with ectoine; light columns: pretreatment with PBS; *: significant difference with respect to control group without CNP or inflammation mediators; §: significant difference with respect to the treatment without ectoine; quantification of the apoptotic cells analogously to Experiment 2).
For Experiments 5 to 7 neutrophil granulocytes were obtained from blood samples. Groups 1 and 2 consisted of persons who participated in a current patient study. Male patients (aged 40 to 80 years) with stable COPD history (GOLD III/IV) and healthy control patients from an identical age group.
The influence of ectoine in combination with the corticosteroid budesonide on the apoptosis rates of neutrophils is illustrated in FIG. 5. Sub-G1-cells were measured after propidium iodide coloration (FACS-flow cytometry). Cells: primary, peripheral neutrophils. Isolation of the neutrophils by Percoll® centrifugation. Cultivation of 2×10^6 neutrophils in the presence of 33 μg/ml CNP, 300 nM LTB4, 20 ng/ml GM-CSF, 1 μM budesonide, 1 mM ectoine and combinations thereof for 16 h. FIG. 5 A: cells cumulated from all samples (n=15), FIG. 5 B: cells from COPD patients (n=5), FIG. 5 C: cells from healthy age control group (n=5), FIG. 5 D: cells from young volunteers (n=5).
Sub-G1-cells were measured after propidium iodide coloration (FACS-flow cytometry). Cells: primary, peripheral, human neutrophils. Isolation of the neutrophils by Percoll® centrifugation and cultivation of 2×10^6 neutrophils in the presence of 33 μg/ml CNP, 1 μM budesonide, 1 mM ectoine, 1 mM urea, 1 mM ectoine amide and combinations thereof for 16 h. The cells were obtained from young volunteers (group 3), n=5, bud=budenoside. Two additional test substances (urea and the ectoine amide of 2-hydroxy-5-aminobenzoic acid) were examined to check whether they were capable of inhibiting anti-apoptotic effects on neutrophils.
(A flow cytometer gives signals particle by particle.)

Another assay concerns Mcl-1. Kind of assay: Mcl-1 protein level in human primary peripheral neutrophils (western blot). In kind it is cell-based. The settings on record: Experiment 6; 1 mM ectoine with 1 μM budesonide, also in the presence of 33 μg/ml CNP, 6 h. The procedure: (§1) The influence of ectoine in combination with budenoside on anti-apoptotic signals can be seen from FIG. 6. With selected samples of neutrophils relevant signals were detected via protein kinase B (Akt) and Mcl-1 by measurement of the Akt phosphorylation and the Mcl-1 protein level, with human primary peripheral neutrophils being used as cells. Isolation of the neutrophils by Percoll® centrifugation, the cultivation of 2×10^6 neutrophils in the presence of 33 μg/ml CNP, 1 μM budesonide, 1 mM ectoine and combinations thereof for 6 h. A protein isolation, western blot, luminescence on x-ray films was effected of material from each 3 COPD patients and 3 persons from the corresponding age control group.
On the technique in general: Immunoblotting shows a protein as a band on a membrane.

The next assay relates to neutrophils. Put plainly: Neutrophil inflammation reactions in rats with carbon nanoparticles intratracheally administered. In kind it is in vivo. The text has this:
Neutrophil inflammation reactions were examined in rats with carbon nanoparticles intratracheally administered. This involved administration both with and without ectoine. […] In the first place, the liberation of cinc-1 is initially due to epithelial cells and macrophages, whereas later on the liberation caused by the great amount of ultimately existing neutrophils dominates.
It thus follows that ectoine cannot only be used on a preemptive basis but also for the treatment of an already existing inflammation.
Carbon nanoparticles (CNP, 14 nm, Printex 90, Degussa, Frankfurt, Germany) were suspended in a phosphate buffered salt solution (PBS) by means of ultra-sonic treatment. Similarly, a 0.1 and a 1 mM solution of ectoine was produced in PBS. 0.4 ml of the CNP particle suspension was administered intratracheally to Fisher 344 female rats. Treatment with 0.4 ml of the ectoine solutions, respectively PBS took place after one and two days. The rats were sacrificed on the third day, their lungs purged with 4×5 ml of PBS each. The cells of the individual animals were suspended in 1 ml of PBS and centrifuged. The pellets were washed with PBS once and resuspended in 300 μl of hypotonic solution (0.1% sodium citrate, 0.1% triton×100) containing 50 μg/ml of propidium iodide (PI). To determine the rate of apoptosis a fluorescence measurement was finally performed.

The subject of the next assay is protein kinase B (Akt). Put plainly: Akt phosphorylation in human primary peripheral neutrophils (western blot). In kind it is cell-based. To be noted: Experiment 6; 1 mM ectoine with 1 μM budesonide, also in the presence of 33 μg/ml CNP, 6 h. The procedure:
as §1

[1] abbreviates: ectoine administered repeatedly after inflammation reaction triggered off several times.

Regarding `CC1=NCCC(C(=O)Nc2ccc(O)c(C(=O)O)c2)N1` (stereo not drawn) [2-methyl-1,4,5,6-tetrahydropyrimidine-4-carboxylic acid amide of 2-hydroxy-5-aminobenzoic acid], the “prevention of the reduction of the apoptosis rate caused by CNP with or without budenoside” value in the assay on human neutrophils (33 μg/ml CNP, 1 μM budesonide) is reported as “able to prevent the reduction of the apoptosis rate”. In addition, the background apoptosis rate result with human neutrophils is given as “did not have an influence on the background apoptosis rate”. For the same compound, the “effectiveness compared with ectoine” value in the assay on human neutrophils (cf. FIG. 7) was “effectiveness comparable to ectoine itself”.

Regarding `CC1=NCC[C@@H](C(=O)O)N1` [ectoine, (S)-2-methyl-1,4,5,6-tetrahydropyrimidine-4-carboxylic acid], in the assay on Mcl-1, the “Mcl-1 protein level, ectoine against budesonide effect” value was “capable of counteracting this effect”. The “reduction of the apoptosis rate caused by CNP” value in the assay with human neutrophils (Experiment 2, neutrophils from young healthy donors, 33 μg/ml CNP, significant amounts of ectoine) is recorded as “could virtually be eliminated”. In addition, the “apoptosis rate reduced by inflammatory stimulants” value in the assay on human neutrophils (Experiment 4, COPD and non-COPD patients, 2 h pretreatment 1 mM ectoine, then 16 h 33 μg/ml CNP, 300 nM LTB4 or 20 ng/ml GMCSF) was “resulted in the apoptosis rate to be restored significantly”. Moreover, the “anti-apoptotic effect of proinflammatory substances combined with budesonide, with ectoine” value in the assay on human neutrophils (Experiment 5, CNP, LTB4, GM-CSF combined with 1 μM budesonide, 1 mM ectoine) was “the anti-apoptotic effect was successfully prevented”. Moreover, in the assay with human neutrophils (Experiment 5, pretreatment 1 mM ectoine, 1 μM budesonide, no proinflammatory substances, all groups), the “anti-apoptotic effect of budesonide, with ectoine” value is recorded as “obviates the anti-apoptotic effect of the budesonide significantly”. The “compensation of the reduction of the apoptosis rate due to pro-inflammatory factors” value with human neutrophils (isolated human neutrophil granulocytes, CNP, LTB4 or GM-CSF) was “can be compensated depending on concentration at least partially”. The “apoptosis rate, ectoine alone” value in the assay on human neutrophils (neutrophils without previous treatment with pro-inflammatory factors) is listed as “did not result in an increase of the apoptosis rate”. For the same compound, the amount of neutrophils entry in the assay on neutrophils (setting [1]) was “diminishing of the amount of neutrophils”; in the assay on neutrophils (rats, carbon nanoparticles intratracheally with ectoine, after two days, in comparison to the placebo group) it was “significant reduction of the amount of neutrophils”. Also, in the assay on neutrophils (setting [1]), the cinc-1 level result is “lowering of the cinc-1 level”. Further, the “liberation of cinc-1” value with neutrophils (rats, carbon nanoparticles intratracheally with ectoine, after two days) was “reduction of the liberation of cinc-1”. Further, the “effect of ectoine given after commencement of the inflammatory reaction” value in the assay with neutrophils (two doses, one and two days after commencement of the inflammatory reaction) is reported as “virtually had the same effect as an ectoine administration at the time the inflammatory reaction was triggered”. For the same compound, the “Akt phosphorylation, ectoine against budesonide effect” value with protein kinase B (Akt) is “capable of counteracting this effect”.

As for `NC(N)=O` [urea, reference compound], the “prevention of the reduction of the apoptosis rate caused by CNP with or without budenoside” value in the assay with human neutrophils (33 μg/ml CNP, 1 μM budesonide) is on record as “this could not be achieved”. Moreover, the background apoptosis rate result with human neutrophils is recorded as “did not have an influence on the background apoptosis rate”.
